Activity calls are given as the source filed them. How the calls were made is not given here.
Test system: CCRIS mutagenicity, Ames/micronucleus/aberration tests
Assay: CCRIS mutagenicity studies
Settings: Test System: AMES SALMONELLA TYPHIMURIUM

Measured: mutagenic call

CCNc1nc(Cl)nc(NC(C)C)n1
inactive: Strain/Indicator: TA97, Metabolic Activation: HAMSTER, LIVER, S-9, AROCLOR 1254 (10%), Method: PREINCUBATION inactive; negative | Strain/Indicator: TA97, Metabolic Activation: HAMSTER, LIVER, S-9, AROCLOR 1254 (30%), Method: PREINCUBATION inactive; negative | Strain/Indicator: TA97, Metabolic Activation: NONE, Method: PREINCUBATION inactive; negative | Strain/Indicator: TA97, Metabolic Activation: NONE, Method: STANDARD PLATE inactive; negative | Strain/Indicator: TA97, Metabolic Activation: RAT, LIVER, S-9, AROCLOR 1254 (10%), Method: PREINCUBATION inactive; negative | Strain/Indicator: TA97, Metabolic Activation: RAT, LIVER, S-9, AROCLOR 1254 (30%), Method: PREINCUBATION inactive; negative | Strain/Indicator: TA97, Metabolic Activation: RAT, LIVER, S-9, AROCLOR 1254, Method: STANDARD PLATE inactive; negative | Strain/Indicator: TA97A, Metabolic Activation: NONE, Method: STANDARD PLATE inactive; negative | Strain/Indicator: TA97A, Metabolic Activation: RAT, LIVER, S-9, AROCLOR 1254, Method: STANDARD PLATE inactive; negative | Strain/Indicator: TA98, Metabolic Activation: HAMSTER, LIVER, S-9, AROCLOR 1254 (10%), Method: PREINCUBATION inactive; negative | Strain/Indicator: TA98, Metabolic Activation: HAMSTER, LIVER, S-9, AROCLOR 1254 (30%), Method: PREINCUBATION inactive; negative | Strain/Indicator: TA98, Metabolic Activation: NONE inactive; negative | Strain/Indicator: TA98, Metabolic Activation: NONE, Method: PREINCUBATION inactive; negative | Strain/Indicator: TA98, Metabolic Activation: PIG, LIVER, S-9, SODIUM PHENOBARBITAL AND BETA-NAPHTHOFLAVONE, Method: STANDARD PLATE inactive; negative | Strain/Indicator: TA98, Metabolic Activation: RAT, LIVER, S-9, AROCLOR 1254 inactive; negative | Strain/Indicator: TA98, Metabolic Activation: RAT, LIVER, S-9, AROCLOR 1254 (10%), Method: PREINCUBATION inactive; negative | Strain/Indicator: TA98, Metabolic Activation: RAT, LIVER, S-9, AROCLOR 1254 (30%), Method: PREINCUBATION inactive; negative | Strain/Indicator: TA98, Metabolic Activation: RAT, LIVER, S-9, AROCLOR 1254, Method: STANDARD PLATE inactive; negative | Strain/Indicator: TA98, Metabolic Activation: S-9, Method: STANDARD PLATE inactive; negative | Strain/Indicator: TA100, Metabolic Activation: HAMSTER, LIVER, S-9, AROCLOR 1254 (10%), Method: PREINCUBATION inactive; negative | Strain/Indicator: TA100, Metabolic Activation: HAMSTER, LIVER, S-9, AROCLOR 1254 (30%), Method: PREINCUBATION inactive; negative | Strain/Indicator: TA100, Metabolic Activation: NONE inactive; negative | Strain/Indicator: TA100, Metabolic Activation: NONE, Method: PREINCUBATION inactive; negative | Strain/Indicator: TA100, Metabolic Activation: PIG, LIVER, S-9, SODIUM PHENOBARBITAL AND BETA-NAPHTHOFLAVONE, Method: STANDARD PLATE inactive; negative | Strain/Indicator: TA100, Metabolic Activation: RAT, LIVER, S-9, AROCLOR 1254 inactive; negative | Strain/Indicator: TA100, Metabolic Activation: RAT, LIVER, S-9, AROCLOR 1254 (10%), Method: PREINCUBATION inactive; negative | Strain/Indicator: TA100, Metabolic Activation: RAT, LIVER, S-9, AROCLOR 1254 (30%), Method: PREINCUBATION inactive; negative | Strain/Indicator: TA100, Metabolic Activation: RAT, LIVER, S-9, AROCLOR 1254, Method: STANDARD PLATE inactive; negative | Strain/Indicator: TA100, Metabolic Activation: S-9, Method: STANDARD PLATE inactive; negative | Strain/Indicator: TA102, Metabolic Activation: NONE inactive; negative | Strain/Indicator: TA102, Metabolic Activation: NONE, Method: STANDARD PLATE inactive; negative | Strain/Indicator: TA102, Metabolic Activation: RAT, LIVER, S-9, AROCLOR 1254 inactive; negative | Strain/Indicator: TA102, Metabolic Activation: RAT, LIVER, S-9, AROCLOR 1254, Method: STANDARD PLATE inactive; negative | Strain/Indicator: TA1535, Metabolic Activation: HAMSTER, LIVER, S-9, AROCLOR 1254 (10%), Method: PREINCUBATION inactive; negative | Strain/Indicator: TA1535, Metabolic Activation: HAMSTER, LIVER, S-9, AROCLOR 1254 (30%), Method: PREINCUBATION inactive; negative | Strain/Indicator: TA1535, Metabolic Activation: NONE inactive; negative | Strain/Indicator: TA1535, Metabolic Activation: NONE, Method: PREINCUBATION inactive; negative | Strain/Indicator: TA1535, Metabolic Activation: NONE, Method: STANDARD PLATE inactive; negative | Strain/Indicator: TA1535, Metabolic Activation: RAT, LIVER, S-9, AROCLOR 1254 inactive; negative | Strain/Indicator: TA1535, Metabolic Activation: RAT, LIVER, S-9, AROCLOR 1254 (10%), Method: PREINCUBATION inactive; negative | Strain/Indicator: TA1535, Metabolic Activation: RAT, LIVER, S-9, AROCLOR 1254 (30%), Method: PREINCUBATION inactive; negative | Strain/Indicator: TA1535, Metabolic Activation: RAT, LIVER, S-9, AROCLOR 1254, Method: STANDARD PLATE inactive; negative | Strain/Indicator: TA1537, Metabolic Activation: HAMSTER, LIVER, S-9, AROCLOR 1254 (10%), Method: PREINCUBATION inactive; negative | Strain/Indicator: TA1537, Metabolic Activation: HAMSTER, LIVER, S-9, AROCLOR 1254 (30%), Method: PREINCUBATION inactive; negative | Strain/Indicator: TA1537, Metabolic Activation: NONE inactive; negative | Strain/Indicator: TA1537, Metabolic Activation: NONE, Method: PREINCUBATION inactive; negative | Strain/Indicator: TA1537, Metabolic Activation: NONE, Method: STANDARD PLATE inactive; negative | Strain/Indicator: TA1537, Metabolic Activation: RAT, LIVER, S-9, AROCLOR 1254 inactive; negative | Strain/Indicator: TA1537, Metabolic Activation: RAT, LIVER, S-9, AROCLOR 1254 (10%), Method: PREINCUBATION inactive; negative | Strain/Indicator: TA1537, Metabolic Activation: RAT, LIVER, S-9, AROCLOR 1254 (30%), Method: PREINCUBATION inactive; negative | Strain/Indicator: TA1537, Metabolic Activation: RAT, LIVER, S-9, AROCLOR 1254, Method: STANDARD PLATE inactive; negative | Strain/Indicator: TA1538, Metabolic Activation: NONE, Method: STANDARD PLATE inactive; negative | Strain/Indicator: TA1538, Metabolic Activation: RAT, LIVER, S-9, AROCLOR 1254, Method: STANDARD PLATE inactive; negative
